In publication PMC12669672, “Structural insights into selective and dual antagonism of EP2 and EP4 prostaglandin receptors” (The EMBO Journal, 2025):
Several values for one entry are separate records, joined by “and”; a condition that tells them apart may be missing. Equal values may be shown once. Read-outs that look alike come from different tables or passages of the source.

Columns and labels:
Test in all cases: GloSensor cAMP assay, antagonism of PGE2-induced cAMP
Format in all cases: cell-based
[1] = target: T1, EP2 M116A (Homo sapiens, UniProt P43116, M116A); conditions: for cAMP activity (∆pIC50 from EP2 WT): TG6-129, M116A
T1 construct: The full-length EP2 or EP4 was cloned into the pcDNA3.1 vector; FLAG (N); expressed in transfected cells; host or cells: AD293 cells
T1 sequence (P43116 whole entry M116A): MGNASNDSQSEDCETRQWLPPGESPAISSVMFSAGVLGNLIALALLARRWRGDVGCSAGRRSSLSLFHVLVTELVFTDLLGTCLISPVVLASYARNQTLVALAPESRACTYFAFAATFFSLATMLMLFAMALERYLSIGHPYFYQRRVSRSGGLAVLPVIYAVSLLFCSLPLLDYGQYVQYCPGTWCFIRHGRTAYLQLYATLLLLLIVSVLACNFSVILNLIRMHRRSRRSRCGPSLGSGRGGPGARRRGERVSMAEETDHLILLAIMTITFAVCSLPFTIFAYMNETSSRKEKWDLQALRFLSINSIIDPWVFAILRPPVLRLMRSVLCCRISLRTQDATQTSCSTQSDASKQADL
Summary of the method: (§1)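 Read-out is GloSensor luminescence from AD293 cells co-expressing FLAG-tagged EP2 variant and GloSensor22F biosensor, transfected at a 1:1 plasmid ratio. Cells were plated at 4000 per well in CO2-independent medium containing 2% cAMP reagent, incubated 1 h at 37 °C, then read.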

[2] = target: T2, EP2 S305A (Homo sapiens, UniProt P43116, S305A); conditions: for cAMP activity (∆pIC50 from EP2 WT): TG6-129, S305A
T2 construct: The full-length EP2 or EP4 was cloned into the pcDNA3.1 vector; FLAG (N); expressed in transfected cells; host or cells: AD293 cells
T2 sequence (P43116 whole entry S305A): as the sequence (P43116 whole entry M116A) above, with A116M, S305A counted along it
Summary of the method: as §1

[3] = target: T3, EP2 S308A (Homo sapiens, UniProt P43116, S308A); conditions: for cAMP activity (∆pIC50 from EP2 WT): TG6-129, S308A
T3 construct: The full-length EP2 or EP4 was cloned into the pcDNA3.1 vector; FLAG (N); expressed in transfected cells; host or cells: AD293 cells
T3 sequence (P43116 whole entry S308A): as the sequence (P43116 whole entry M116A) above, with A116M, S308A counted along it
Summary of the method: as §1

[4] = target: T4, EP2 S86A (Homo sapiens, UniProt P43116, S86A); conditions: for cAMP activity (∆pIC50 from EP2 WT): TG6-129, S86A
T4 construct: The full-length EP2 or EP4 was cloned into the pcDNA3.1 vector; FLAG (N); expressed in transfected cells; host or cells: AD293 cells
T4 sequence (P43116 whole entry S86A): as the sequence (P43116 whole entry M116A) above, with S86A, A116M counted along it
Summary of the method: as §1

[5] = target: T5, EP2 T82A (Homo sapiens, UniProt P43116, T82A); conditions: for cAMP activity (∆pIC50 from EP2 WT): TG6-129, T82A
T5 construct: The full-length EP2 or EP4 was cloned into the pcDNA3.1 vector; FLAG (N); expressed in transfected cells; host or cells: AD293 cells
T5 sequence (P43116 whole entry T82A): as the sequence (P43116 whole entry M116A) above, with T82A, A116M counted along it
Summary of the method: as §1

[6] = target: T6, EP2 W186A (Homo sapiens, UniProt P43116, W186A)
T6 construct: The full-length EP2 or EP4 was cloned into the pcDNA3.1 vector; FLAG (N); expressed in transfected cells; host or cells: AD293 cells
T6 sequence (P43116 whole entry W186A): as the sequence (P43116 whole entry M116A) above, with A116M, W186A counted along it
Summary of the method: as §1

[7] = target: T7, EP4 S319A (Homo sapiens, UniProt P35408, S319A)
T7 construct: The full-length EP2 or EP4 was cloned into the pcDNA3.1 vector (Invitrogen), incorporating an N-terminal FLAG tag; expressed in transfected cells; host or cells: AD293
T7 sequence (P35408 whole entry S319A): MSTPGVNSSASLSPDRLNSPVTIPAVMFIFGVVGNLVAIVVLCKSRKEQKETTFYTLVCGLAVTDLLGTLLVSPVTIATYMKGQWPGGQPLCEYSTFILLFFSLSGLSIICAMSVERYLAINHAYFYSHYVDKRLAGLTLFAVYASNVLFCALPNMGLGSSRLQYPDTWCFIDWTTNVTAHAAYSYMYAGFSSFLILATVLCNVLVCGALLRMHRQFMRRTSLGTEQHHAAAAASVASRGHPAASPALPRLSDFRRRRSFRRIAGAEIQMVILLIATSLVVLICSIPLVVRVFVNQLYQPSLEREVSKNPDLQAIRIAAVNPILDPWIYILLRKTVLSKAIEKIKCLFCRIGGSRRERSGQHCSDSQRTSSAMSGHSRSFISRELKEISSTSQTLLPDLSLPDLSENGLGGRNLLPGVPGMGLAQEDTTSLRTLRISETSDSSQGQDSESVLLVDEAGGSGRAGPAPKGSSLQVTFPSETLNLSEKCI

[8] = 1 h, TG6-129 log([M]) -6, read-out: % cAMP activity (normalized to WT)
[9] = 1 h, TG6-129 log([M]) -7, read-out: % cAMP activity (normalized to WT)
[10] = 1 h, TG6-129 log([M]) -9, read-out: % cAMP activity (normalized to WT)
[11] = 1 h, TG6-129 log([M]) -11, read-out: % cAMP activity (normalized to WT)
[12] = 1 h, TG6-129 log([M]) -12, read-out: % cAMP activity (normalized to WT)
[13] = 1 h, TG6-129 log([M]) -10, read-out: % cAMP activity (normalized to WT)
[14] = 1 h, TG6-129 log([M]) -8, read-out: % cAMP activity (normalized to WT)

IC50 [1]: 513 nM
cAMP activity (∆pIC50 from EP2 WT) ([1]; Mean): -0.947
cAMP activity (∆pIC50 from EP2 WT) ([1]; single experiments 1st-3rd): -0.910 and -0.955 and -0.975
IC50 [2]: 28.8 nM
remaining activity at 1 µM [2, 8]: 9.02%
remaining activity at 0.1 µM [2, 9]: 12.5%
remaining activity at 0.001 µM [2, 10]: 44.8%
remaining activity at 10 pM [2, 11]: 67.8%
remaining activity at 1 pM [2, 12]: 54.8%
cAMP activity (∆pIC50 from EP2 WT) ([2]; Mean): 0.475
cAMP activity (∆pIC50 from EP2 WT) ([2]; single experiments 1st-3rd): 0.478 and 0.360 and 0.586
IC50 [3]: 209 nM
remaining activity at 0.1 µM [3, 9]: 80.3%
remaining activity at 0.0001 µM [3, 13]: 108%
remaining activity at 10 pM [3, 11]: 110%
cAMP activity (∆pIC50 from EP2 WT) ([3]; Mean): -0.534
cAMP activity (∆pIC50 from EP2 WT) ([3]; single experiments 1st-3rd): -0.496 and -0.568 and -0.537
IC50 [4]: 339 nM
remaining activity at 0.01 µM [4, 14]: 39.3%
remaining activity at 0.0001 µM [4, 13]: 51.4%
remaining activity at 1 pM [4, 12]: 49.3%
cAMP activity (∆pIC50 from EP2 WT) ([4]; Mean): -0.714
cAMP activity (∆pIC50 from EP2 WT) ([4]; single experiments 1st-3rd): -0.638 and -0.681 and -0.823
IC50 [5]: 74.1 nM
remaining activity at 0.01 µM [5, 14]: 28.8%
remaining activity at 0.001 µM [5, 10]: 38.9%
remaining activity at 10 pM [5, 11]: 40.1%
remaining activity at 1 pM [5, 12]: 33.8%
cAMP activity (∆pIC50 from EP2 WT) ([5]; Mean): -0.177
cAMP activity (∆pIC50 from EP2 WT) ([5]; single experiments 1st-3rd): -0.228 and -0.186 and -0.118
IC50 [6]: 2000 nM
remaining activity at 1 µM [6, 8]: 12.3%
remaining activity at 0.1 µM [6, 9]: 14.9%
remaining activity at 0.01 µM [6, 14]: 13.9%
remaining activity at 0.001 µM [6, 10]: 12.1%
remaining activity at 0.0001 µM [6, 13]: 12.9%
remaining activity at 10 pM [6, 11]: 15.2%
remaining activity at 1 pM [6, 12]: 12.4%
cAMP activity (∆pIC50 from EP2 WT) ([6]; TG6-129, W186A, Mean): -1.790
IC50 [7]: 20 µM
remaining activity at 100 µM ([7]; 1 h, TG6-129 log([M]) -4.00, read-out: % cAMP activity (normalized to WT)): 15.3%
remaining activity at […] ([7]; 1 h, TG6-129 log([M]) -4.70, read-out: % cAMP activity (normalized to WT)): 26.4%
remaining activity at […] ([7]; 1 h, TG6-129 log([M]) -5.40, read-out: % cAMP activity (normalized to WT)): 52.2%
remaining activity at […] ([7]; 1 h, TG6-129 log([M]) -6.10, read-out: % cAMP activity (normalized to WT)): 50.8%
remaining activity at 0.1585 µM ([7]; 1 h, TG6-129 log([M]) -6.80, read-out: % cAMP activity (normalized to WT)): 53.5%
remaining activity at 0.03236 µM ([7]; 1 h, TG6-129 log([M]) -7.49, read-out: % cAMP activity (normalized to WT)): 57.1%
remaining activity at 0.006457 µM ([7]; 1 h, TG6-129 log([M]) -8.19, read-out: % cAMP activity (normalized to WT)): 56.3%
remaining activity at 0.001288 µM ([7]; 1 h, TG6-129 log([M]) -8.89, read-out: % cAMP activity (normalized to WT)): 49.4%
cAMP activity (∆pIC50 from EP4 WT) ([7]; TG6-129, S319A, Mean): -0.299
Structure (SMILES): CCc1nnc(NS(=O)(=O)c2ccc(NC(=S)NC(=O)/C=C/c3ccc(F)cc3)cc2)s1 [TG6-129]
